Measured values taken from patent US9717243B2, “Piperidinecarboxylic acid derivatives as fungicides” (priority 2013, dated 2017).

experiment: LogP by HPLC on reversed phase columns (EEC directive 79/831 Annex V.A8); type: physicochemical; settings: not given
Experimental: Calibration was done with straight-chain alkan2-ones (with 3 to 16 carbon atoms) with known LogP values (measurement of LogP values using retention times with linear interpolation between successive alkanones). Lambda-max-values were determined using UV-spectra from 200 nm to 400 nm and the peak values of the chromatographic signals.

Structure (SMILES) | Log P[a]
C#CCOc1ccccc1C1CC(c2csc(C3(C(=O)OC4CCOC4)CCN(C(=O)Cn4nc(C(F)F)cc4C(F)F)CC3)n2)=NO1 (stereo not shown) [Example I-58] | 3.55
C#CCOc1ccc(F)c(F)c1C1CC(c2csc(C3(C(=O)OC4CCOC4)CCN(C(=O)Cn4nc(C(F)F)cc4C(F)F)CC3)n2)=NO1 (stereo not shown) [Example I-59] | 3.55
COC(=O)C1(c2nc(C3=NOC(c4c(Cl)cccc4OS(C)(=O)=O)C3)cs2)CCN(C(=O)Cn2nc(C(F)F)cc2C)CC1 (stereo not shown) [Example I-60] | 3.19
COC(=O)C1(c2nc(C3=NOC(c4c(F)cccc4F)C3)cs2)CCN(C(=O)Cn2nc(C(F)F)cc2C)CC1 (stereo not shown) [Example I-62] | 3.17
COC(=O)C1(c2nc(C3=NOC(c4ccccc4)C3)cs2)CCN(C(=O)Cn2nc(C(F)F)cc2C)CC1 (stereo not shown) [Example I-63] | 3.17
COC(=O)C1(c2nc(C3=NOC(c4ccccc4OS(C)(=O)=O)C3)cs2)CCN(C(=O)Cn2nc(C(F)F)cc2C)CC1 (stereo not shown) [Example I-64] | 2.96
C#CCOc1ccccc1C1CC(c2csc(C3(C(=O)OC)CCN(C(=O)Cn4nc(C(F)F)cc4C)CC3)n2)=NO1 (stereo not shown) [Example I-65] | 3.33
COC(=O)C1(c2nc(C3=NOC(c4c(Cl)cccc4OS(C)(=O)=O)C3)cs2)CCN(C(=O)Cn2nc(C(F)(F)F)cc2C)CC1 (stereo not shown) [Example I-67] | 3.55
COC(=O)C1(c2nc(C3=NOC(c4c(F)cccc4F)C3)cs2)CCN(C(=O)Cn2nc(C(F)(F)F)cc2C)CC1 (stereo not shown) [Example I-69] | 3.55
COC(=O)C1(c2nc(C3=NOC(c4ccccc4)C3)cs2)CCN(C(=O)Cn2nc(C(F)(F)F)cc2C)CC1 (stereo not shown) [Example I-70] | 3.55
COC(=O)C1(c2nc(C3=NOC(c4ccccc4OS(C)(=O)=O)C3)cs2)CCN(C(=O)Cn2nc(C(F)(F)F)cc2C)CC1 (stereo not shown) [Example I-71] | 3.33
C#CCOc1ccccc1C1CC(c2csc(C3(C(=O)OC)CCN(C(=O)Cn4nc(C(F)(F)F)cc4C)CC3)n2)=NO1 (stereo not shown) [Example I-72] | 3.71
C#CCOc1ccc(F)c(F)c1C1CC(c2csc(C3(C(=O)OC)CCN(C(=O)Cn4nc(C(F)(F)F)cc4C)CC3)n2)=NO1 (stereo not shown) [Example I-73] | 3.71
COC(=O)C1(c2nc(C3=NOC(c4c(Cl)cccc4OS(C)(=O)=O)C3)cs2)CCN(C(=O)Cn2nc(C)cc2C(F)F)CC1 (stereo not shown) [Example I-74] | 3.15
COC(=O)C1(c2nc(C3=NOC(c4c(F)cccc4F)C3)cs2)CCN(C(=O)Cn2nc(C)cc2C(F)F)CC1 (stereo not shown) [Example I-75] | 3.11
C#CCOc1ccc(F)c(F)c1C1CC(c2csc(C3(C(=O)OC)CCN(C(=O)Cn4nc(C)cc4C(F)F)CC3)n2)=NO1 (stereo not shown) [Example I-76] | 3.09
COCCOC(=O)C1(c2nc(C3=NOC(c4c(Cl)cccc4OS(C)(=O)=O)C3)cs2)CCN(C(=O)Cn2nc(C(F)F)cc2C(F)F)CC1 (stereo not shown) [Example I-77] | 3.48
C#CCOC(=O)C1(c2nc(C3=NOC(c4c(Cl)cccc4OS(C)(=O)=O)C3)cs2)CCN(C(=O)Cn2nc(C(F)F)cc2C(F)F)CC1 (stereo not shown) [Example I-78] | 3.58
COC(=O)C1(c2nc(C3=NOC(c4ccccc4OS(C)(=O)=O)C3)cs2)CCN(C(=O)Nc2cc(C(F)(F)F)nn2C)CC1 (stereo not shown) [Example I-79] | 3.00
C#CCOc1ccccc1C1CC(c2csc(C3(C(=O)OC)CCN(C(=O)Nc4cc(C(F)(F)F)nn4C)CC3)n2)=NO1 (stereo not shown) [Example I-80] | 3.35
C#CCOc1ccc(F)c(F)c1C1CC(c2csc(C3(C(=O)OC)CCN(C(=O)Nc4cc(C(F)(F)F)nn4C)CC3)n2)=NO1 (stereo not shown) [Example I-81] | 3.35
NC(=S)C1(C(=O)OC2CCOC2)CCN(C(=O)Cn2nc(C(F)F)cc2C(F)F)CC1 (stereo not shown) [II-1] | 2.02

Structure (SMILES) | Log P[a]
CSCCOC(=O)C1(C(N)=S)CCN(C(=O)Cn2nc(C(F)F)cc2C(F)F)CC1 [II-2] | 2.49
C=CCOC(=O)C1(C(N)=S)CCN(C(=O)Cn2nc(C(F)F)cc2C(F)F)CC1 [II-3] | 2.42
NC(=S)C1(C(=O)OCc2ccccc2)CCN(C(=O)Cn2nc(C(F)F)cc2C(F)F)CC1 [II-4] | 2.90
COC(=O)C1(C(N)=S)CCN(C(=O)Cn2nc(C)cc2C(F)F)CC1 [II-5] | 1.75
COC(=O)C1(C(N)=S)CCN(C(=O)Cn2nc(C(F)(F)F)cc2C)CC1 [II-6] | 2.08
COC(=O)C1(C(N)=S)CCN(C(=O)Cn2nc(C(F)F)cc2C)CC1 [II-7] | 1.68
CC(C)OC(=O)C1(C(N)=S)CCN(C(=O)Cn2nc(C(F)F)cc2C(F)F)CC1 [II-9] | 2.52
CCOC(=O)C1(C(N)=S)CCN(C(=O)Cn2nc(C(F)F)cc2C(F)F)CC1 [II-10] | 2.26
COC(=O)C1(C(N)=S)CCN(C(=O)Nc2cc(C(F)F)ccc2C(F)F)CC1 [II-13] | 2.23
COC(=O)C1(C(N)=S)CCN(C(=O)Nc2cn(C(F)F)nc2C)CC1 [II-14] | 1.30
COC(=O)C1(C(N)=S)CCN(C(=O)Nc2cc(C)ccc2C)CC1 [II-15] | 2.02
COC(=O)C1(C(N)=S)CCN(C(=O)Nc2cn(C)nc2C(F)F)CC1 [II-16] | 1.22
C#CCOC(=O)C1(C(N)=S)CCN(C(=O)Cn2nc(C(F)F)cc2C(F)F)CC1 [II-17] | 2.27
COCCOC(=O)C1(C(N)=S)CCN(C(=O)Cn2nc(C(F)F)cc2C(F)F)CC1 [II-18] | 2.10
COC(=O)C1(C(N)=S)CCN(C(=O)Nc2cc(C(F)(F)F)nn2C)CC1 [II-19] | 1.74
N#CC1(C(=O)OC2CCOC2)CCN(C(=O)Cn2nc(C(F)F)cc2C(F)F)CC1 (stereo not shown) [IV-1] | 2.26
COCCOC(=O)C1(C#N)CCN(C(=O)Cn2nc(C(F)F)cc2C(F)F)CC1 [IV-2] | 2.32
CSCCOC(=O)C1(C#N)CCN(C(=O)Cn2nc(C(F)F)cc2C(F)F)CC1 [IV-3] | 2.78
C#CCOC(=O)C1(C#N)CCN(C(=O)Cn2nc(C(F)F)cc2C(F)F)CC1 [IV-4] | 2.52
C=CCOC(=O)C1(C#N)CCN(C(=O)Cn2nc(C(F)F)cc2C(F)F)CC1 [IV-5] | 2.71
N#CC1(C(=O)OCc2ccccc2)CCN(C(=O)Cn2nc(C(F)F)cc2C(F)F)CC1 [IV-6] | 3.23
COC(=O)C1(C#N)CCN(C(=O)Cn2nc(C(F)(F)F)cc2C)CC1 [IV-7] | 2.32

Structure (SMILES) | Log P[a]
Cc1cc(C(F)F)nn1CC(=O)N1CCC(C#N)(C(=O)O)CC1 [IV-8] | 1.10
COC(=O)C1(C#N)CCN(C(=O)Cn2nc(C(F)F)cc2C)CC1 [IV-9] | 1.89
CC(C)OC(=O)C1(C#N)CCN(C(=O)Cn2nc(C(F)F)cc2C(F)F)CC1 [IV-10] | 2.84
CCOC(=O)C1(C#N)CCN(C(=O)Cn2nc(C(F)F)cc2C(F)F)CC1 [IV-11] | 2.55
N#CC1(C(=O)O)CCN(C(=O)Cn2nc(C(F)F)cc2C(F)F)CC1 [IV-12] | 1.44
Cc1cc(C(F)(F)F)nn1CC(=O)N1CCC(C#N)(C(=O)O)CC1 [IV-14] | 1.50
COC(=O)C1(C#N)CCN(C(=O)Nc2cc(C(F)F)ccc2C(F)F)CC1 [IV-16] | 2.47
COC(=O)C1(C#N)CCN(C(=O)Nc2cn(C(F)F)nc2C)CC1 [IV-18] | 1.51
COC(=O)C1(C#N)CCN(C(=O)Nc2cc(C)ccc2C)CC1 [IV-19] | 2.26
CC(C)(C)OC(=O)C1(C#N)CCN(C(=O)Nc2ccccc2)CC1 [IV-20] | 2.82
N#CC1(C(=O)O)CCN(C(=O)Nc2ccccc2)CC1 [IV-21] | 1.16
CC(C)(C)OC(=O)C1(C#N)CCN(C(=O)Nc2ccc(F)cc2)CC1 [IV-22] | 2.96
CC(C)(C)OC(=O)C1(C#N)CCN(C(=O)Cc2ccccc2)CC1 [IV-23] | 2.96
CC(C)(C)OC(=O)C1(C#N)CCN(C(=O)Cc2ccc(Cl)cc2)CC1 [IV-24] | 3.37
CC(C)(C)OC(=O)C1(C#N)CCN(C(=S)Nc2ccccc2C(F)(F)F)CC1 [IV-25] | 3.50
CC(C)(C)OC(=O)C1(C#N)CCN(C(=S)Nc2cccc(Cl)c2)CC1 [IV-26] | 3.72
CC(C)(C)OC(=O)C1(C#N)CCN(C(=S)Nc2ccc(OC(F)(F)F)cc2)CC1 [IV-27] | 4.01
CC(C)(C)OC(=O)C1(C#N)CCN(C(=O)Nc2ccc(Cl)c(C(F)(F)F)c2)CC1 [IV-28] | 4.06
CC(C)(C)OC(=O)C1(C#N)CCN(C(=O)Nc2cccc(C#N)c2)CC1 [IV-29] | 2.88
N#CC1(C(=O)O)CCN(C(=O)Nc2ccc(Cl)c(C(F)(F)F)c2)CC1 [IV-30] | 2.42

same assay, conditions: Table 1, compounds of formula (I); LC-UV, acidic range, 0.1% formic acid in water and acetonitrile as eluent

Structure (SMILES) | Log P[a]
COC(=O)C1(c2nc(C3=NOC(c4ccccc4-c4ccccc4)C3)cs2)CCN(C(=O)Cn2nc(C(F)F)cc2C)CC1 (stereo not shown) [Example I-61] | 4.09
COC(=O)C1(c2nc(C3=NOC(c4ccccc4-c4ccccc4)C3)cs2)CCN(C(=O)Cn2nc(C(F)(F)F)cc2C)CC1 (stereo not shown) [Example I-68] | 4.49

same assay, conditions: Table 2, compounds of formula (IV); LC-UV, acidic range, 0.1% formic acid in water and acetonitrile as eluent; read-out: Log P[a]

Structure (SMILES) | chromatographic logP
COC(=O)C1(C#N)CCN(C(=O)Cn2nc(C(F)F)cc2C(F)F)CC1 [IV-13, methyl 1-{[3,5-bis(difluoromethyl)-1H-pyrazol-1-yl]acetyl}-4-cyanopiperidine-4-carboxylate] | 2.26
COC(=O)C1(C#N)CCN(C(=O)Nc2cc(C(F)F)nn2C)CC1 [IV-17, methyl 4-cyano-1-{[3-(difluoromethyl)-1-methyl-1H-pyrazol-5-yl]carbamoyl}piperidine-4-carboxylate] | 1.53

same assay, conditions: Table 4, compounds of formula (II); LC-UV, acidic range, 0.1% formic acid in water and acetonitrile as eluent; read-out: Log P[a]

Structure (SMILES) | chromatographic logP
COC(=O)C1(C(N)=S)CCN(C(=O)Cn2nc(C(F)F)cc2C(F)F)CC1 [II-11, methyl 1-{[3,5-bis(difluoromethyl)-1H-pyrazol-1-yl]acetyl}-4-carbamothioylpiperidine-4-carboxylate] | 1.98
COC(=O)C1(C(N)=S)CCN(C(=O)Nc2cc(C(F)F)nn2C)CC1 [II-12, methyl 4-carbamothioyl-1-{[3-(difluoromethyl)-1-methyl-1H-pyrazol-5-yl]carbamoyl}piperidine-4-carboxylate] | 1.33
